# Reference: ChEMBL document CHEMBL4007416, “Thieno[3,2-b]pyrrole-5-carboxamides as New Reversible Inhibitors of Histone Lysine Demethylase KDM1A/LSD1. Part 2: Structure-Based Drug Design and Structure-Activity Relationship” (J Med Chem, 2017)
# The source made the active and inactive calls. The rule behind the calls is not given here.
# Experiments:
# [1] = target: T1, LSD1/CoREST complex (Homo sapiens, UniProt O60341); assay: Inhibition of recombinant human KDM1A/CoREST complex expressed in Escherichia coli using [Lys(Me1)4]-Histone H3 (1 to 21 residues)-GGK(biotin) as substrate incubated for 20 mins measured after 1 hr by TR-FRET assay
# [2] = target: T2, Amine oxidase [flavin-containing] A (Homo sapiens, UniProt P21397); assay: Inhibition of recombinant human MAOA incubated for 15 mins measured after 30 mins by luminescence-Glo assay
# T2 sequence (P21397 whole entry): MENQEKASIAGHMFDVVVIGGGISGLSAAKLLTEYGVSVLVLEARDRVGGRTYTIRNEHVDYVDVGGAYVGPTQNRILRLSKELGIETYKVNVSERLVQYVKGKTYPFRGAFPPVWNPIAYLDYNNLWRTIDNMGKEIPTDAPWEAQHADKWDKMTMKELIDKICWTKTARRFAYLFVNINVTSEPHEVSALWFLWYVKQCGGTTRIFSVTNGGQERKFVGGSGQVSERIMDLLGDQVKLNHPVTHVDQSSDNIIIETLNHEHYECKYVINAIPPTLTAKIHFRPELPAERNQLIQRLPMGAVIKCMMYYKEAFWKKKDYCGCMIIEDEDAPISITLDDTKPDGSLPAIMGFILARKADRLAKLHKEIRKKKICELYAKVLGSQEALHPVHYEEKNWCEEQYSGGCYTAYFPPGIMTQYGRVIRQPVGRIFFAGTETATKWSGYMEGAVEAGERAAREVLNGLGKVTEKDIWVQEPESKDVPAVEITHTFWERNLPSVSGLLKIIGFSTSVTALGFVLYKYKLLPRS
# [3] = target: T3, Amine oxidase [flavin-containing] B (Homo sapiens, UniProt P27338); assay: Inhibition of recombinant human MAOB incubated for 15 mins measured after 30 mins by luminescence-Glo assay
# T3 sequence (P27338 whole entry): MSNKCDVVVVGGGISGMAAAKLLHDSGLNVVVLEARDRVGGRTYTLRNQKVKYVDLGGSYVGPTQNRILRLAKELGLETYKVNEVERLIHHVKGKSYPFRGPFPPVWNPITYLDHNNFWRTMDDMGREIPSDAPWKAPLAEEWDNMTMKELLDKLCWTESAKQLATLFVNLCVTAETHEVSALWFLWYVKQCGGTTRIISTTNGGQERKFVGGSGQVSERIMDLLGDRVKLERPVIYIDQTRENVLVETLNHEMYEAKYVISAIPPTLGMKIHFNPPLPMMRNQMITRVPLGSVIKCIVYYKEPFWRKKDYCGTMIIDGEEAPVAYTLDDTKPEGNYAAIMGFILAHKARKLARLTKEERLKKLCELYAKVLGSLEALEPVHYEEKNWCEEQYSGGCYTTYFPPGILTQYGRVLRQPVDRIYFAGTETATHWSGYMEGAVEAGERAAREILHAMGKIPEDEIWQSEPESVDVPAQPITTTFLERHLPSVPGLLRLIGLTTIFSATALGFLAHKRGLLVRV
# [4] = target: Lysine-specific histone demethylase 1A (Homo sapiens) (UniProt O60341); assay: Inhibition of KDM1A in human THP1 cells assessed as increase in CD86 expression level at 0.5 uM after 48 hrs by flow cytometric analysis; assay type: cell-based
# [5] = target: Lysine-specific histone demethylase 1A (Homo sapiens) (UniProt O60341); assay: Inhibition of KDM1A in human THP1 cells assessed as increase in CD11b expression level at 0.5 uM after 48 hrs by flow cytometric analysis; assay type: cell-based
# [6] = tested on: MV4-11; assay: Antiproliferative activity against human MV4-11 cells
# [7] = tested on: NB-4; assay: Antiproliferative activity against human NB4 cells
# [8] = tested on: THP-1; assay: Antiproliferative activity against human THP1 cells
# [9] = tested on: THP-1; assay: Induction of apoptosis in human THP1 cells at 1 uM after 72 hrs by Annexin V-propidium iodide double staining based flow cytometry; assay type: functional, cell-based
# [10] = tested on: THP-1; assay: Cell cycle arrest in human THP1 cells at 1 uM after 72 hrs by propidium iodide staining based flow cytometry; assay type: functional
# [11] = tested on: THP-1; assay: Anticlonogenic activity against human THP1 cells assessed as inhibition of methylcellulose colony formation at 1 uM after 13 days relative to control; assay type: functional; settings: THP-1, 312 h
# [12] = target: T1, LSD1/CoREST complex; assay: Competitive inhibition of recombinant human KDM1A/CoREST complex expressed in Escherichia coli using H3K4me peptide as substrate preincubated for 15 mins followed by substrate addition measured for 12 mins by Lineweaver-Burk plot analysis
# [13] = target: T4, Lysine-specific histone demethylase 2 (Homo sapiens, UniProt Q8NB78); assay: Inhibition of KDM1B (unknown origin)
# T4 sequence (Q8NB78 whole entry): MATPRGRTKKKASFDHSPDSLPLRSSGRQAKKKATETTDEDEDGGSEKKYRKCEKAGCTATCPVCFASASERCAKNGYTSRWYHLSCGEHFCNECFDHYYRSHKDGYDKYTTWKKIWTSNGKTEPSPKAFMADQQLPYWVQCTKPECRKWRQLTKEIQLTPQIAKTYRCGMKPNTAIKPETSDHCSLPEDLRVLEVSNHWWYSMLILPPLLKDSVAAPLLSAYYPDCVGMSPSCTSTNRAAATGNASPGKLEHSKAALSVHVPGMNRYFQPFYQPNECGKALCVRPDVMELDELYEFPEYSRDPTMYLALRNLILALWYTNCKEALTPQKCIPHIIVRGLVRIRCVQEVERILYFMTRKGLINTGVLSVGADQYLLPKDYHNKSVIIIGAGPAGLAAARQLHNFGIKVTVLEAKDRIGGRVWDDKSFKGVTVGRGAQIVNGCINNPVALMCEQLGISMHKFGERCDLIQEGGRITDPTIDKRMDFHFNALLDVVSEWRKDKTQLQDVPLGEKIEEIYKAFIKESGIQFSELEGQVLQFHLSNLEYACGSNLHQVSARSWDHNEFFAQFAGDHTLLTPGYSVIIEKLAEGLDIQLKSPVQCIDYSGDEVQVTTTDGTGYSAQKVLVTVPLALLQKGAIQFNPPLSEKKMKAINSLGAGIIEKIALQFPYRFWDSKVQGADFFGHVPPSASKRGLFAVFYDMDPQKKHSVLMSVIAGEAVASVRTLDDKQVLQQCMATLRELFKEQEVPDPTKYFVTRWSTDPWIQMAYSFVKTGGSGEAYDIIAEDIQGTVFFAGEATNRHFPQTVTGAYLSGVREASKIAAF
# [14] = tested on: THP-1; assay: Induction of apoptosis in human THP1 cells at 0.5 uM after 72 hrs by Annexin V-propidium iodide double staining based flow cytometry; assay type: functional, cell-based
# [15] = tested on: THP-1; assay: Cell cycle arrest in human THP1 cells at 0.5 uM after 72 hrs by propidium iodide staining based flow cytometry; assay type: functional
# [16] = tested on: THP-1; assay: Anticlonogenic activity against human THP1 cells assessed as inhibition of methylcellulose colony formation at 0.5 uM after 13 days relative to control; assay type: functional; settings: THP-1, 312 h
# [17] = tested on: CN1CCC(Oc2ccc(OCc3ccccc3NC(=O)c3cc4sccc4n3C)cc2)CC1; assay: Inhibition of recombinant human KDM1A/CoREST complex expressed in Escherichia coli assessed as Vmax for substrate using H3K4me peptide as substrate preincubated for 15 mins followed by substrate addition measured for 12 mins by Lineweaver-Burk plot analysis
# [18] = tested on: CN1CCC(Oc2ccc(OCc3ccccc3NC(=O)c3cc4sccc4n3C)cc2)CC1; assay: Inhibition of recombinant human KDM1A/CoREST complex expressed in Escherichia coli assessed as Km for substrate using H3K4me peptide as substrate preincubated for 15 mins followed by substrate addition measured for 12 mins by Lineweaver-Burk plot analysis
Compound,IC50 [1],other results
Cn1c(C(=O)Nc2ccccc2COc2ccc(NC3CCNCC3)cc2)cc2sccc21,2.5 µM,
COCc1ccc(NC(=O)c2cc3sccc3n2C)cc1,> 100 µM,
CCOCc1cccc(NC(=O)c2cc3sccc3n2C)c1COc1ccc(OC2CCNCC2)cc1,0.056 µM,
COCc1cccc(NC(=O)c2cc3sccc3n2C)c1COc1ccc(OC2CCNCC2)cc1,0.0746 to 0.075 µM,
Cn1c(C(=O)Nc2ccc(OCc3ccncc3)cc2)cc2sccc21,> 100 µM,
Cn1c(C(=O)Nc2cccc(OCc3ccncc3)c2)cc2sccc21,5.8 µM,
COCc1cccc(NC(=O)c2cc3sccc3n2C)c1COc1ccc(OC[C@@H]2CCNC2)cc1,0.0084 µM,IC50 [2]: 24.9 µM; IC50 [3]: > 100 µM; inhibition [4]: Active; inhibition [5]: Active; IC50 [6]: 1.2 µM; IC50 [7]: 0.4 µM; IC50 [8]: 1.3 µM
Cn1c(C(=O)Nc2ccccc2OCc2ccncc2)cc2sccc21,> 100 µM,
Cn1c(C(=O)Nc2ccccc2COc2ccc(OC3CCCNCC3)cc2)cc2sccc21 (stereo not given),0.064 µM,
CCn1c(C(=O)Nc2cccc(COC)c2COc2ccc(OC[C@@H]3CCNC3)cc2)cc2sccc21,0.0067 µM,IC50 [2]: 47.2 µM; IC50 [3]: > 100 µM; inhibition [4]: Active; inhibition [5]: Active; IC50 [6]: 4.1 µM; IC50 [7]: 2.9 µM; IC50 [8]: 1.2 µM; Activity [9]: inactive; Activity [10]: inactive; inhibition at 1 µM [11]: 63.5%
COCc1cccc(NC(=O)c2cc3sccc3n2C)c1COc1ccc(OC2CCCNCC2)cc1 (stereo not given),0.0292 µM,
COc1ccccc1NC(=O)c1cc2sccc2n1C,> 100 µM,
CN1CCC(Oc2ccc(OCc3ccc(NC(=O)c4cc5sccc5n4C)cc3)cc2)CC1,2.5 µM,
COCc1ccccc1NC(=O)c1cc2sccc2n1C,> 100 µM,
CN1CCN(Cc2ccc(OCc3ccccc3NC(=O)c3cc4sccc4n3C)cc2)CC1,2.9 µM,
Cn1c(C(=O)Nc2ccc(COc3ccncc3)cc2)cc2sccc21,46.4 µM,
Cn1c(C(=O)Nc2ccccc2COc2ccc(OC[C@@H]3CCNC3)cc2)cc2sccc21,0.018 µM,
Cn1c(C(=O)Nc2ccccc2COc2ccc(O[C@H]3CC[C@@H](N)CC3)cc2)cc2sccc21,0.121 µM,
Cn1c(C(=O)Nc2ccccc2COc2ccc(OCC3CCNCC3)cc2)cc2sccc21,0.149 µM,
Cn1c(C(=O)Nc2ccccc2COc2ccc(OC3CCNC3)cc2)cc2sccc21 (stereo not given),0.804 µM,
CN1CCC(Oc2cccc(OCc3ccccc3NC(=O)c3cc4sccc4n3C)c2)CC1,1 µM,
COc1ccc(NC(=O)c2cc3sccc3n2C)cc1,> 100 µM,
Cn1c(C(=O)Nc2ccccc2C(=O)Nc2ccc(OC3CCNCC3)cc2)cc2sccc21,2.2 µM,
CCN1CCC(Oc2ccc(OCc3ccccc3NC(=O)c3cc4sccc4n3C)cc2)CC1,0.451 µM,

Compound,IC50 [1],other results
CN1CCC(Oc2ccc(OCc3ccccc3NC(=O)c3cc4sccc4n3C)cc2)CC1,0.31 to 0.331 µM,Ki [12]: 2.3 µM
CNCCCOc1ccc(OCc2ccccc2NC(=O)c2cc3sccc3n2C)cc1,1.3 µM,
COCc1cccc(NC(=O)c2cc3sccc3n2C)c1COc1ccc(OC[C@H]2CCNC2)cc1,0.0857 µM,
CN1CCC(Oc2ccccc2OCc2ccccc2NC(=O)c2cc3sccc3n2C)CC1,68.2 µM,
Cn1c(C(=O)Nc2ccccc2COc2ccc(OC3CCCNC3)cc2)cc2sccc21 (stereo not given),0.674 µM,
CN1CCC(Oc2ccc(COc3ccccc3NC(=O)c3cc4sccc4n3C)cc2)CC1,0.336 µM,
CCOCc1cccc(NC(=O)c2cc3sccc3n2C)c1COc1ccc(OC[C@@H]2CCNC2)cc1,0.0078 µM,IC50 [2]: 41.3 µM; IC50 [3]: > 100 µM; inhibition [4]: Active; inhibition [5]: Active; IC50 [6]: 2.5 µM; IC50 [7]: 1.2 µM; IC50 [8]: 2.4 µM; Activity [9]: inactive; Activity [10]: inactive; inhibition at 1 µM [11]: 70.5%
Cn1c(C(=O)Nc2ccccc2COc2ccc([C@H]3CC[C@H](N)CC3)cc2)cc2sccc21,0.34 µM,
N[C@H]1CC[C@H](N[C@@H]2C[C@H]2c2ccccc2)CC1,,IC50 [2]: 41.3 µM; IC50 [13]: 12.9 µM; Activity [14]: inactive; Activity [15]: inactive; inhibition at 0.5 µM [16]: 70%
Cn1c(C(=O)Nc2ccccc2COc2ccc(OCC3CNC3)cc2)cc2sccc21,0.618 µM,
CC(C)OCc1cccc(NC(=O)c2cc3sccc3n2C)c1COc1ccc(OC2CCNCC2)cc1,0.066 µM,
LSD1/CoREST complex (Homo sapiens) (from UniProt O60341+Q9UKL0),,Vmax [17]: 226 µmol/min; Km [18]: 1.5 µM
Cn1c(C(=O)Nc2ccccc2COc2ccc(CNC(=N)N)cc2)cc2sccc21,3.2 µM,
Cn1c(C(=O)Nc2ccccc2OCC2CCN(CC3CCNCC3)CC2)cc2sccc21,1.7 µM,
Cn1c(C(=O)Nc2ccccc2CCc2ccc(OC3CCNCC3)cc2)cc2sccc21,0.177 µM,
CC(=O)N1CCC(Oc2ccc(OCc3ccccc3NC(=O)c3cc4sccc4n3C)cc2)CC1,> 100 µM,
Cn1c(C(=O)Nc2cccc(CN3CCOCC3)c2COc2ccc(OC3CCNCC3)cc2)cc2sccc21,0.065 µM,
Cn1c(C(=O)Nc2ccccc2COc2ccc(OC3CCNCC3)cc2)cc2sccc21,0.09 to 0.094 µM,
Cn1c(C(=O)Nc2ccccc2COc2ccc(OC3C[C@H]4CC[C@@H](C3)N4)cc2)cc2sccc21 (stereo not given in full),0.124 µM,
Cn1c(C(=O)Nc2ccccc2COc2ccc(N3CCNCC3)cc2)cc2sccc21,1.5 µM,
Cn1c(C(=O)Nc2ccccc2COc2ccncc2)cc2sccc21,> 100 µM,
Cn1c(C(=O)Nc2ccccc2COc2ccc(OCC3CCNC3)cc2)cc2sccc21 (stereo not given),0.022 µM,
Cn1c(C(=O)Nc2ccccc2COc2ccc(OC3CCN(Cc4ccccc4)CC3)cc2)cc2sccc21,> 100 µM,
